Assay results: PubChem BioAssay AID330 (DTP/NCI, 2004)
Where “and” joins values, the source holds several entries; their conditions need not be identical. Equal entries are not always repeated. Inconclusive results and toxic doses are left out. The calls were made as follows: active = survival T/C of 150% or more; inactive = T/C below 125% in these data.

Tested on: P388 leukemia ip, CD2F1 mice, survival T/C
Test: NCI In Vivo Anticancer Drug Screen. Data for tumor model P388 Leukemia (intraperitoneal) in CD2F1 (CDF1) mice
Settings: endpoint: median survival time, higher = longer survival
How it was run: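 Mice carrying the transplanted tumor received test compound or vehicle. Survival was recorded in each group, and the value is the treated-group measurement divided by that of the vehicle-treated control group.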

[1] = dose: 50.0 mg/kg/injection, schedule: Q01DX009 (ip), vehicle: saline
[2] = dose: 25.0 mg/kg/injection, schedule: Q01DX009 (ip), vehicle: saline with Tween-80
[3] = dose: 50.0 mg/kg/injection, schedule: Q01DX009 (ip), vehicle: saline with Tween-80
[4] = dose: 100.0 mg/kg/injection, schedule: Q01DX009 (ip), vehicle: saline with Tween-80
[5] = dose: 200.0 mg/kg/injection, schedule: Q01DX009 (ip), vehicle: saline with Tween-80
[6] = dose: 6.25 mg/kg/injection, schedule: Q01DX009 (ip), vehicle: saline with Tween-80
[7] = dose: 12.5 mg/kg/injection, schedule: Q01DX009 (ip), vehicle: saline with Tween-80
[8] = dose: 50.0 mg/kg/injection, schedule: Q01DX005 (ip), vehicle: saline with Tween-80
[9] = dose: 100.0 mg/kg/injection, schedule: Q01DX005 (ip), vehicle: saline with Tween-80

Measured: T/C

C=C1SC(=Nc2ccc(Cl)cc2)N(c2nc(Cl)nc(Cl)n2)C12CCCCC2
inactive: [1] 98 % of control | dose: 100.0 mg/kg/injection, schedule: Q01DX009 (ip), vehicle: saline 90 % of control | dose: 200.0 mg/kg/injection, schedule: Q01DX009 (ip), vehicle: saline 89 % of control

COc1cc2ccnc(/C=N\NC(N)=S)c2cc1OC
inactive: [2] 98 % of control | [3] 101 % of control | [4] 107 % of control | [5] 118 % of control

CC(=O)c1c(O)c(C)c(O)c2c1OC1=CC(=O)C(C(C)=O)C(=O)C12C (stereo not given)
inactive: [6] 100 % of control and 122 % of control | [7] 115 % of control and 97 % of control | dose: 12.5 mg/kg/injection, schedule: Q01DX009 (ip), vehicle: saline 97 % of control | [2] 101 % of control and 103 % of control (2×) | [1] 109 % of control and 111 % of control

COc1cc(C(C)(C)C)cc(OC)c1Br
inactive: [3] 101 % of control | [4] 88 % of control | [5] 90 % of control

CCCCC(/C=N/NC(N)=S)C(=O)OCC (stereo not given)
inactive: dose: 60.0 mg/kg/injection, schedule: Q01DX005 (ip), vehicle: Klucel (hydroxypropylcellulose) (HPC) 102 % of control | dose: 120.0 mg/kg/injection, schedule: Q01DX005 (ip), vehicle: Klucel (hydroxypropylcellulose) (HPC) 100 % of control | dose: 240.0 mg/kg/injection, schedule: Q01DX005 (ip), vehicle: Klucel (hydroxypropylcellulose) (HPC) 100 % of control

N#Cc1c(SCc2ccc(Cl)cc2)nsc1Nc1ccc(Cl)cc1
inactive: [7] 96 % of control | [2] 91 % of control | [3] 92 % of control

CC(=O)c1ccc(NC(=O)C#N)cc1
inactive: dose: 7.5 mg/kg/injection, schedule: Q01DX005 (ip), vehicle: saline with Tween-80 104 % of control | dose: 15.0 mg/kg/injection, schedule: Q01DX005 (ip), vehicle: saline with Tween-80 110 % of control

Cc1[nH]c(=O)[nH]c(=O)c1/C=C/C(=O)O
inactive: dose: 25.0 mg/kg/injection, schedule: Q01DX009 (ip), vehicle: Klucel (hydroxypropylcellulose) (HPC) 100 % of control | dose: 50.0 mg/kg/injection, schedule: Q01DX009 (ip), vehicle: Klucel (hydroxypropylcellulose) (HPC) 100 % of control | dose: 100.0 mg/kg/injection, schedule: Q01DX009 (ip), vehicle: Klucel (hydroxypropylcellulose) (HPC) 102 % of control | dose: 200.0 mg/kg/injection, schedule: Q01DX009 (ip), vehicle: Klucel (hydroxypropylcellulose) (HPC) 102 % of control

COC(=O)c1cc(NC(=O)Oc2ccccn2)cc(C(=O)OC)c1
inactive: dose: 50.0 mg/kg/injection, schedule: Q01DX009 (ip), vehicle: olive oil, sesame oil, peanut oil 98 % of control | dose: 100.0 mg/kg/injection, schedule: Q01DX009 (ip), vehicle: olive oil, sesame oil, peanut oil 97 % of control | dose: 200.0 mg/kg/injection, schedule: Q01DX009 (ip), vehicle: olive oil, sesame oil, peanut oil 99 % of control

CCC1COC(CC)N1 (stereo not given)
inactive: [8] 113 % of control and 95 % of control | [9] 103 % of control

NNc1ccc2nccn2n1
inactive: [6] 95 % of control | [7] 101 % of control | [2] 94 % of control

Cc1nc2cc(C(F)(F)F)cc(N)c2n1-c1ccccc1
inactive: [8] 113 % of control | [9] 106 % of control | dose: 200.0 mg/kg/injection, schedule: Q01DX005 (ip), vehicle: saline with Tween-80 111 % of control

CC1(C)OC2C3COC(O3)C(O)C2O1 (stereo not given)
inactive: dose: 100.0 mg/kg/injection, schedule: Q01DX001 (ip), vehicle: saline 107 % of control | dose: 200.0 mg/kg/injection, schedule: Q01DX001 (ip), vehicle: saline 98 % of control | dose: 400.0 mg/kg/injection, schedule: Q01DX001 (ip), vehicle: saline 112 % of control

NC(=O)N=C(N)N
inactive: dose: 50.0 mg/kg/injection, schedule: Q01DX005 (ip), vehicle: Klucel (hydroxypropylcellulose) (HPC) 106 % of control | dose: 100.0 mg/kg/injection, schedule: Q01DX005 (ip), vehicle: Klucel (hydroxypropylcellulose) (HPC) 98 % of control | dose: 200.0 mg/kg/injection, schedule: Q01DX005 (ip), vehicle: Klucel (hydroxypropylcellulose) (HPC) 101 % of control and 106 % of control

CC(=O)OCC1OC(S[As](C)C)C(OC(C)=O)C(OC(C)=O)C1OC(C)=O (stereo not given)
inactive: [2] 114 % of control | [3] 111 % of control | [4] 116 % of control | [5] 124 % of control

O=C(O)c1ccc(N=Nc2ccc(N(CCCl)CCCl)cc2C(=O)O)cc1
inactive: dose: 50.0 mg/kg/injection, schedule: Q01DX001 (ip), vehicle: Klucel (hydroxypropylcellulose) (HPC) 100 % of control | dose: 100.0 mg/kg/injection, schedule: Q01DX001 (ip), vehicle: Klucel (hydroxypropylcellulose) (HPC) 107 % of control

CCCC(=O)OC1C=C2N3C(=O)C4CC56C(=CC(OC(C)=O)C7OC75)N4C(=O)C3CC26C2OC12 (stereo not given)
inactive: dose: 0.13 mg/kg/injection, schedule: Q01DX005 (ip), vehicle: Klucel (hydroxypropylcellulose) (HPC) 100 % of control | dose: 0.25 mg/kg/injection, schedule: Q01DX005 (ip), vehicle: Klucel (hydroxypropylcellulose) (HPC) 100 % of control | dose: 0.5 mg/kg/injection, schedule: Q01DX005 (ip), vehicle: Klucel (hydroxypropylcellulose) (HPC) 100 % of control | dose: 1.0 mg/kg/injection, schedule: Q01DX005 (ip), vehicle: Klucel (hydroxypropylcellulose) (HPC) 107 % of control | dose: 2.0 mg/kg/injection, schedule: Q01DX005 (ip), vehicle: Klucel (hydroxypropylcellulose) (HPC) 99 % of control and 103 % of control | dose: 4.0 mg/kg/injection, schedule: Q01DX005 (ip), vehicle: Klucel (hydroxypropylcellulose) (HPC) 96 % of control

CCCCCC/C(CC(SCC)c1ccccc1Cl)=N\NC(N)=O (stereo not given)
inactive: dose: 60.0 mg/kg/injection, schedule: Q01DX005 (ip), vehicle: saline + Tween-80 + alcohol 105 % of control | dose: 120.0 mg/kg/injection, schedule: Q01DX005 (ip), vehicle: saline + Tween-80 + alcohol 97 % of control | dose: 240.0 mg/kg/injection, schedule: Q01DX005 (ip), vehicle: saline + Tween-80 + alcohol 100 % of control

CC[C@@H]1CN2CCc3c([nH]c4ccccc34)[C@@](C(=O)OC)(c3cc4c(cc3OC)N(C)[C@H]3[C@@](O)(C(=O)OC)[C@H](OC(C)=O)[C@]5(CC)C=CCN6CC[C@]43[C@@H]65)C[C@H](C2)C1=O
inactive: dose: 1.0 mg/kg/injection, schedule: Q01DX001 (ip), vehicle: water 104 % of control | dose: 2.0 mg/kg/injection, schedule: Q01DX001 (ip), vehicle: water 108 % of control | dose: 4.0 mg/kg/injection, schedule: Q01DX001 (ip), vehicle: distilled water + Tween-80 119 % of control | dose: 4.0 mg/kg/injection, schedule: Q01DX001 (ip), vehicle: water 120 % of control | dose: 8.0 mg/kg/injection, schedule: Q01DX001 (ip), vehicle: distilled water + Tween-80 117 % of control | dose: 16.0 mg/kg/injection, schedule: Q01DX001 (ip), vehicle: distilled water + Tween-80 119 % of control
